Assay [1] deals with SCC-13, HaCaT, A431, TU159, HNSCC3 cells. The experiment in a line: Spheroid formation, matrigel invasion and migration assays in five cell lines (Example 11). The assay is classed as cell-based, human. The following applies: FIGS. 38-42. The procedure:
SCC13 cells were grown for one week as monolayer in spheroid media; cells were harvested with 0.25% trypsin and plated with 2 mL of spheroid media at 15,000 cells per well in a 6-well dish. Cells were counted on day 0 and then treated with the indicated concentration of the indicated compound. Control was 0.1% DMSO. Cells were counted using a cell counter, 2 wells per treatment on each day. Values shown are mean±SEM, n=1.
HaCaT cells were grown for one week as a monolayer in spheroid media. Cells were harvested with 0.25% trypsin and plated with 2 mL of spheroid media at 15,000 cells per well in a 6-well dish. Cells were counted on day 0 and then treated with the indicated concentration of the indicated compound. Control was 0.1% DMSO. Cells were counted using a cell counter, 2 wells per treatment on each day. Values shown are mean±SEM, n=1.
A431 cells were grown for one week as a monolayer in spheroid media. Cells were harvested with 0.25% trypsin and plated with 2 mL of spheroid media at 15,000 cells per well in a 6-well dish. Cells were counted on day 0 and then treated with the indicated concentration of the indicated compound. Control was 0.1% DMSO. Cells were counted using a cell counter, 2 wells per treatment on each day. Values shown are mean±SEM, n=1.
TU159 cells were harvested with 0.25% trypsin and plated with 2 mL of spheroid media at 40,000 cells per well in a 6 well low-attachment plate. The cells were grown as spheroids for 8 days. On day 8 the spheroids were treated with the indicated concentration of the indicated compound. Control was 0.1% DMSO. The same 2 wells per treatment were counted on each day. Values shown are mean±SEM, n=1.
HNSCC3 cells were grown for one week as a monolayer in spheroid media. Cells were harvested with 0.25% trypsin and plated with 2 mL of spheroid media at 15,000 cells per well in a 6-well dish. Cells were counted on day 0 and then treated with the indicated concentration of the indicated compound. Control was 0.1% DMSO. The same 2 wells per treatment were counted on each day. Values shown are mean±SEM, n=1. […]

The test system of another assay is GBM cells (U87 and T98G). The experiment in a line: EdU incorporation assay. The class given is cell-based, human. The following applies: 24 h. The procedure:
EdU Incorporation Assay. After treatment of cells seeded in PolyD-Lys coated coverslips, half of the media was replaced with 10 μM EdU in 10% FBS MEM. After 90 min, cells were fixed with 4% PFA and permeabilized with 0.5% Triton X-100. Detection of EdU was performed as directed in the Click-iT EdU Alexa 647 kit (Life Technologies). 1:2000 Hoechst dilution was used to stain nuclei. Randomized pictures were taken for each group and a person blinded for the treatments counted the EdU and Hoechst positive cells.

A further assay deals with T1, TG2 (Homo sapiens, UniProt P21980).
T1 sequence (P21980 1-687): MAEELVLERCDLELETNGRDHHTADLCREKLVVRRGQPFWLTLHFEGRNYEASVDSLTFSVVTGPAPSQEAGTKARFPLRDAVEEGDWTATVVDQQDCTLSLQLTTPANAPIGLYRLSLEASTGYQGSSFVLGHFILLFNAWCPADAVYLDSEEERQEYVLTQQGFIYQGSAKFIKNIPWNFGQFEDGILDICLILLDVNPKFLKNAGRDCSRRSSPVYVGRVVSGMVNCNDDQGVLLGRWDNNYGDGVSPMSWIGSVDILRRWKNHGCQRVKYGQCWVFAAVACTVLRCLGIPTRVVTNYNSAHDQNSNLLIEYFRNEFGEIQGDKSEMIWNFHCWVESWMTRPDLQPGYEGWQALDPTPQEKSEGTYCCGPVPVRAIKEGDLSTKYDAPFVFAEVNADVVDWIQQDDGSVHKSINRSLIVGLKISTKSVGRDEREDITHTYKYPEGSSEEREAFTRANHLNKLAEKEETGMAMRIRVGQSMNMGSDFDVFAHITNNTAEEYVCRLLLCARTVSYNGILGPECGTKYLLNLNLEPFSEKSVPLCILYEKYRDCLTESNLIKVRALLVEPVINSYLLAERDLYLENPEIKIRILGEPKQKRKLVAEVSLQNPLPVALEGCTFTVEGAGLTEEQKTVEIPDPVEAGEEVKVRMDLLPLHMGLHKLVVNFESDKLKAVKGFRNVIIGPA
As to the kind of experiment: In situ transglutaminase assay, ionomycin-activated, GBM cell lines. Particulars: 10 μM; for ionomycin-activated in situ transamidating activity of TG2: U87 cells, 1 h pretreatment, 1 μM ionomycin 3 h. The assay is classed as cell-based. On the set-up: endogenous in cells. The procedure: In situ transglutaminase assay. In situ transamidating activity measurement was conducted as described previously (Gundemir, S. and Johnson, G. V., PLoS ONE 4(7):e6123, 2009) with slight modifications. […] In a high protein binding 96-well plate (Falcon), 10 μg of protein was loaded in a total of 50 μL homogenization buffer and the plate was incubated at 4° C. overnight. The next day, 200 μL of blocking buffer (5% BSA, 0.01% Tween 20 in borate saline [100 mM boric acid, 20 mM Na-borate and 0.76 mM NaCl]) was added to each sample and the plate was incubated at 37° C. for 1 h. Each well was then rinsed 3 times with rinsing buffer (1% BSA, 0.01% Tween 20 in borate saline) and incubated with 1 μg/μL Horseradish peroxidase conjugated neutravidin (Pierce) in a total of 100 μL rinsing buffer at room temperature for 1 h. […] After 20 minutes, the reaction was stopped by addition of 50 μL of 1 M sulfuric acid and read at 493 nm wavelength.

A further assay relates to T98G cells. The experiment in a line: Agarose colony formation assay, T98G cells. The class given is cell-based, human. Particulars: 10 μM, 2 weeks. The procedure:
Agarose colony formation assay. Agarose colony formation assay was conducted as described (Horman, S. R. et al., J. Biomol. Screen 18(10):1298-308, 2013; Zhang, K. et al., Tumour Biol. 35(3):2537-48, 2014) using 6-well plates and 5,000 cells in each well. 10 μM NC9 or DMSO was added to every layer at the start of the experiments. 2 mL liquid MEM containing 10 μM NC9 or DMSO was used to cover the agarose and it was changed 3 times a week. Colony growth was monitored every day and at the end of 10-15 days, the colonies were fixed with 4% paraformaldehyde, stained with 0.005% crystal violet, washed with PBS twice and 40 random pictures were taken from each treatment group. A person blinded for the treatments measured the area of the colonies using ImageJ program and the volumes were calculated from the area data under the assumption that the colonies are perfect spheres. The volumes were used to compare the effect of NC9 on colony growth.

Turning to `C=CC(=O)NCCCC[C@H](NC(=O)OCc1ccccc1)C(=O)NCCOCCOCCNS(=O)(=O)c1cccc2c(N(C)C)cccc12` [NC9], the “spheroid formation, matrigel invasion and migration” value (shortened to “spheroid formation”) in assay [1] was “inhibit spheroid formation, matrigel invasion and migration”. Also, in the assay on GBM cells (U87 and T98G), the “proliferation (EdU incorporation)” value was “slowed down the proliferation”. Moreover, the “in situ transamidation activity of TG2 induced by ionomycin” value at TG2 (U87, 1321N, U251, T98G cell lines) is recorded as “completely inhibited”. Moreover, on TG2, the “ionomycin-activated in situ transamidating activity of TG2” value (from here on “ionomycin-activated”) is “inhibit ionomycin-activated transamidating activity of TG2”. The “colony growth, T98G” value in the assay with T98G cells is “significantly reduced the growth”.

For the molecule `C=CC(=O)NCCCC[C@H](NC(=O)OCc1ccccc1)C(=O)N1CCN(S(=O)(=O)c2cccc3c(N(C)C)cccc23)CC1` [VA4, (S)-benzyl(6-acrylamido-1-(4-((5-(dimethylamino)naphthalen-1-yl)sulfonyl)piperazin-1-yl)-1-oxohexan-2-yl)carbamate], the “spheroid formation” value in assay [1] is “inhibit spheroid formation, matrigel invasion and migration”. The “proliferation (EdU incorporation)” value in the assay on GBM cells (U87 and T98G) is reported as “slowed down the proliferation”. Also, the “ionomycin-activated” value on TG2 was “inhibit ionomycin-activated transamidating activity of TG2”. The “colony growth, T98G” value in the assay on T98G cells is given as “inhibited colony growth”.

Turning to `C=CC(=O)NCCCC[C@H](NC(=O)OCc1ccccc1)C(=O)N1CCN(C(=O)c2cc3ccc(O)cc3oc2=O)CC1` [VA5, (S)-Benzyl(6-acrylamido-1-(4-(7-hydroxy-2-oxo-2H-chromene-3-carbonyl)piperazin-1-yl)-1-oxohexan-2-yl)carbamate], the “spheroid formation” value in assay [1] was “inhibit spheroid formation, matrigel invasion and migration”. Also, the “proliferation (EdU incorporation)” value in the assay with GBM cells (U87 and T98G) is listed as “no effect”. In addition, on TG2, the “ionomycin-activated” value is “inhibit ionomycin-activated transamidating activity of TG2”. The “colony growth, T98G” value in the assay with T98G cells is “did not suppress colony growth”.
